Drawing on publication PMC8395317, “The Simple Method of Preparation of Highly Carboxylated Bacterial Cellulose with Ni- and Mg-Ferrite-Based Versatile Magnetic Carrier for Enzyme Immobilization” (International Journal of Molecular Sciences, 2021), this text covers Km for one molecule.

For this test, the system named is T1, phospholipase A (PLA, Lecitase Ultra).
T1 construct: gene LIP; one fused chain: T. lanuginosus lipase N-terminal part (1-284) + F. oxysporum phospholipase A1 C-terminal part (285-339); commercial Lecitase Ultra (Sigma-Aldrich), used without further purification; free form
The test is described as follows: p-nitrophenol release, absorbance […] nm, Michaelis-Menten nonlinear fit. The class given is biochemical, Thermomyces lanuginosus. The note with it: free enzyme; 0.1 to 1.2 mmol/L pNPB, 50 mmol/L phosphate pH 7.0, 0.004% Triton X-100, 30 °C.

Molecules are shown by their SMILES.

For orientation: Km means the concentration of substrate that gives half-maximal velocity. As to `CCCC(=O)Oc1ccc([N+](=O)[O-])cc1` [p-nitrophenyl-butyrate], the Km is 490 ± 100 µM.
